# Reference: patent US6461664B1, “Chelated feed additive and method of preparation” (Agristudio S. r. L., priority 1999, dated 2002)
# Assay: solubility in water of the dried chelate
# Assay type: physicochemical
# Conditions: ambient temperature, white powder
# Experimental: In the case described, the dried chelate is in the form of a white powder, with a melting point of about 248° C. and a solubility in water of about 20 g/l at ambient temperature.
substance,measurement,value
(CH3SCH2CH2CHOHCO)2Zn [Example 1],solubility in water,about 20 g/l
